Patent US20230234936A1, “COMPOUND FOR TARGETING AND DEGRADING PROTEIN, AND PREPARATION METHOD THEREFOR AND USE THEREOF” (SHANGHAI LEADINGTAC PHARMACEUTICAL CO., LTD., priority 2020, published 2023)

How the values were obtained:
IRAK4 kinase = target: T1, IRAK4 kinase (Homo sapiens, UniProt Q9NWZ3); assay: IRAK4 kinase activity test (KinEASE-STK S1 HTRF kit); assay type: biochemical; details: 2.5 nM kinase, 1 μM biotinylated polypeptide substrate, 7 μM ATP, 37° C. 120 min
T1 sequence (Q9NWZ3 1-460): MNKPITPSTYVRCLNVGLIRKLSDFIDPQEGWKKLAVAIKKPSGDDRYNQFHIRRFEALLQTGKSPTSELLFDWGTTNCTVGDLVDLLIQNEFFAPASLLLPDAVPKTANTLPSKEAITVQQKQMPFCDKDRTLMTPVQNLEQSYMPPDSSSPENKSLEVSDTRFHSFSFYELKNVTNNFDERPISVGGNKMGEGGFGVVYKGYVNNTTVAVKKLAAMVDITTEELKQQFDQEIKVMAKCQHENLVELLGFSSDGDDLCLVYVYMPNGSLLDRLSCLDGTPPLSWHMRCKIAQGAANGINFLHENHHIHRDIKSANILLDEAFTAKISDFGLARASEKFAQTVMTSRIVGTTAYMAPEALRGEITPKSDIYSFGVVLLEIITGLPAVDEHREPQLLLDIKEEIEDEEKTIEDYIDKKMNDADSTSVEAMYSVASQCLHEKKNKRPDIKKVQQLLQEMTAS
Summary of the method: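 Compound in DMSO, serially diluted to 10000–0.038 nM final, incubated with 2.5 nM kinase, 1 μM biotinylated peptide substrate and 7 μM ATP at 37° C for 120 min. Eu-anti-phospho-Ser/Thr antibody plus streptavidin-XL665 stopped the reaction (1 h RT). HTRF 665/620 nm ratio gave % inhibition versus control; IC50 from nonlinear log-concentration fit.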

[1] = target: T2, IRAK4 protein in THP-1 cells (Homo sapiens, UniProt Q9NWZ3); assay: Degradation of IRAK4 in THP-1 cells (Western blot); assay type: cell-based; details: 24 hours, compound 1-3000 nM
T2 construct: endogenous in cells; host or cells: THP-1
T2 sequence (Q9NWZ3 1-460): T1 sequence (Q9NWZ3 1-460)
Summary of the method: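 THP-1 cells (5×10^5/well) treated 24 h with compound at 1–3000 nM final. IRAK4 in lysates quantified by Western blot, normalized to internal reference and compared with control to give degradation rate; DC50 and Dmax from nonlinear fit of log concentration.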

Compound	IC50 (IRAK4 kinase) [nM]	DC50 [1] [nM]	Dmax [1] [%]
COc1ccc(C(=O)N2CCC3(CCN(CCN4CCC(n5cc6cc(NC(=O)c7cccc(C(F)(F)F)n7)c(C(C)(C)O)cc6n5)CC4)CC3)CC2)cc1N1CCC(=O)NC1=O [Example 10, N-(2-(1-(2-(9-(3-(2,4-dioxotetrahydropyrimidin-1 (2H)-yl)-4-methoxybenzoyl)-3,9-diazaspiro[5.5]undec-3-yl)ethyl)piperidin-4-yl)-6-(2-hydroxyprop-2-yl)-2H-indazol-5-yl)-6-(trifluoromethyl) pyridinecarboxamide]	6.5	2.3	100
COc1cc2nn([C@H]3CC[C@H](CN4CCC5(CC4)CCN(C(=O)c4ccc(Cl)c(N6CCC(=O)NC6=O)c4)CC5)CC3)cc2cc1NC(=O)c1cccc(C(F)(F)F)n1 [Example 50, N-(2-((1r,4r)-4-((9-(4-chloro-3-(2,4-dioxotetrahydropyrim-idin-1 (2H)-yl)benzoyl)-3,9-diazaspiro[5.5]undec-3-yl)methyl)cyclohexyl)-6-methoxy-2H-inda-zol-5-yl)-6-(tri-fluoromethyl) pyridinecarbox-amide]	7.2	5.6	97
COc1ccc(C(=O)N2CCC3(CCC(CN4CCC(n5cc6cc(NC(=O)c7cccc(C(F)(F)F)n7)c(C(C)(C)O)cc6n5)CC4)CC3)CC2)cc1N1CCC(=O)NC1=O [Example 33, N-(2-(1-((3-(3-(2-4-dioxotetrahydro-pyrimidin-1 (2H)-yl)-4-me-thoxybenzoyl)-3-azaspiro [5.5]undec-9-yl)methyl)piperdin-4-yl)-6-(2-hydroxyprop-2-yl)-2H-indazol-5-yl)-6-(trifluoro-methyl) pyridinecarbox-amide]	17.2	2.1	96.6
COc1cc2nn(C3CCN(CCCC4CCN(C(=O)c5ccc(OC)c(N6CCC(=O)NC6=O)c5)CC4)CC3)cc2cc1NC(=O)c1cccc(C(F)(F)F)n1 [Example 18, N-(2-(1-(3-(1-(3-(2,4-dioxotetrahydro-pyrimidin-1 (2H)-yl)-4-me-thoxybenzoyl)piperidin-4-yl)propyl)piperidin-4-yl)-6-methoxy-2H-in-dazol-5-yl)-6-(trifluorometh-yl) pyridinecarbox-amide]	9.6	7.1	99.4
O=C1CCN(c2cc(C(=O)N3CCC4(CCC(CN5CCC(n6cc7cc(NC(=O)c8cccc(C(F)(F)F)n8)c(OC(F)F)cc7n6)CC5)CC4)CC3)ccc2Cl)C(=O)N1 [Example 66]	21.4	16.1	95.3
COc1cc2nn([C@H]3CC[C@H](CN(C)CC4CCN(C(=O)c5ccc(Cl)c(N6CCC(=O)NC6=O)c5)CC4)CC3)cc2cc1NC(=O)c1cccc(C(F)(F)F)n1 [Example 51, N-(2-((1r,4r)-4-((((1-(4-chloro-3-(2,4-dioxotetrahydro-pyrimidin-1 (2H)-yl)benzoyl)piperdin-4-yl)methyl) (methyl)amino)methyl)cyclohexyl)-6-methoxy-2H-inda-zol-5-yl)-6-(tri-fluoromethyl) pyridinecarbox-amide]	11.3	27.5	95.4
CC(C)(C)C(=O)OCN1C(=O)CCN(c2cc(C(=O)N3CCC4(CCC(CCN5CCC(n6cc7cc(NC(=O)c8cccc(C(F)(F)F)n8)c(C(C)(C)O)cc7n6)CC5)CC4)CC3)ccc2Cl)C1=O [Example 71, methyl (3-(2-chloro-5-(9-(2-(4-(6-(2-hydroxyprop-2-yl)-5-(6-(trifluoromethyl)pyridinecarboxamido)-2H-indazol-2-yl)piperidin-1-yl)ethyl)-3-azaspiro[5.5]undecyl-3-carbonyl)phenyl)-2,6-dioxotetrahydropyrimidin-1 (2H)-yl) pivalate]	114	3.7	97
COc1cc2nn(C3CCN(CCCN4CCN(C(=O)c5ccc(OC)c(N6CCC(=O)NC6=O)c5)CC4)CC3)cc2cc1NC(=O)c1cccc(C(F)(F)F)n1 [Example 19, N-(2-(1-(3-(4-(3-(2,4-dioxotetrahydro-pyrimidin-1 (2H)-yl)-4-me-thoxybenzoyl)piperazin-1-yl)propyl)piperidin-4-yl)-6-methoxy-2H-in-dazol-5-yl)-6-(trifluorometh-yl) pyridinecarbox-amide]	16.9	13.4	92.8
COc1cc2nn(C3CCN(CCC4CC5(CCN(C(=O)c6ccc(Cl)c(N7CCC(=O)NC7=O)c6)CC5)C4)CC3)cc2cc1NC(=O)c1cccc(C(F)(F)F)n1 [Example 43, N-(2-(1-(2 (7-(4-chloro-3-(2,4-dioxotetrahydro-pyrimidin-1 (2H)-yl)benzoyl)-7-azospiro [3.5]non-2-yl)ethyl)piperidin-4-yl)-6-methoxy-2H-indazol-5-yl)-6-(trifluoromethyl) pyridinecarbox-amide]	24.2	4.9	98.7
CN(CC1CCN(C(=O)c2ccc(Cl)c(N3CCC(=O)NC3=O)c2)CC1)C[C@H]1CC[C@H](n2cc3cc(NC(=O)c4cccc(C(F)(F)F)n4)c(C(C)(C)O)cc3n2)CC1 [Example 62]	6.9	5.6	92.3
COc1ccc(C(=O)N2CCC3(CC2)CN(CCN2CCC(n4cc5cc(NC(=O)c6cccc(C(F)(F)F)n6)c(C(C)(C)O)cc5n4)CC2)C3)cc1N1CCC(=O)NC1=O [Example 12, N-(2-(1-(2-(7-(3-(2,4-dioxotetrahydropyrimidin-1 (2H)-yl)-4-methoxybenzoyl)-2,7-diazaspiro [3.5]non-2-yl)ethyl)piperidin-4-yl)-6-(2-hydroxyprop-2-yl)-2H-indazol-5-yl)-6-(trifluoro-methyl) pyridinecarboxamide]	7.9	1.4	96.9
CC(C)(O)c1cc2nn(C3CCN(CC4CC5(CCN(C(=O)c6ccc(Cl)c(N7CCC(=O)NC7=O)c6)CC5)C4)CC3)cc2cc1NC(=O)c1cccc(C(F)(F)F)n1 [Example 36, N-(2-(1-((7-(4-chloro-3-(2,4-dioxotetrahydro-pyrimidin-1 (2H)-yl)benzoyl)-7-azaspiro [3.5]non-2-yl)methyl)piperdin-4-yl)-6-(2-hydroxyprop-2-yl)-2H-indazol-5-yl)-6-(trifluoro-methyl) pyridinecarbox-amide]	11.8	4	92.5
COc1cc2nn(C3CCN(CCOC4CCN(C(=O)c5ccc(OC)c(N6CCC(=O)NC6=O)c5)CC4)CC3)cc2cc1NC(=O)c1cccc(C(F)(F)F)n1 [Example 20]	9.5	12.2	93.7
CC(C)(O)c1cc2nn(C3CCN(CCC4CC5(CCN(C(=O)c6ccc(Cl)c(N7CCC(=O)NC7=O)c6)CC5)C4)CC3)cc2cc1NC(=O)c1cccc(C(F)(F)F)n1 [Example 27]	13.8	3.5	96.3
COc1ccc(C(=O)N2CCC(CCN3CCC(n4cc5cc(NC(=O)c6cccc(C(F)(F)F)n6)c(C(C)(C)O)cc5n4)CC3)CC2)cc1N1CCC(=O)NC1=O [Example 7, N-(2-(1-(2-(1-(3-(2,4-dioxotetrahydropyrimidin-1 (2H)-yl)-4-methoxybenzoyl)piperidin-4-yl)ethyl)piperidin-4-yl)-6-(2-hydroxyprop-2-yl)-2H-indazol-5-yl)-6-(trifluoromethyl) pyridinecarboxamide]	5.9	9.4	95.5
